In US5977169A, “Substituted tetronic acids useful for treating HIV and other retroviruses” (priority 1997, dated 1999):

Molecular target: T1, HIV-1 protease (Human immunodeficiency virus type 1 group M subtype B, UniProt P04585)
T1 construct: The protease (or proteinase) enzyme, consisting of only 99 amino acids
Assay: In vitro HIV protease inhibitory assay (fluorescently labeled substrate, avidin-polystyrene particles)
Format: biochemical
Conditions: for inhibition at 3.3 µM: HIV-1 dose 3.3 μM; for inhibition at 10 µM: HIV-1 dose 10.0 μM; for inhibition at 30 µM: HIV-1 dose 30.0 μM; for inhibition at 1 µM: HIV-1 dose 1.0 μM; for inhibition at 100 µM: HIV-1 dose 100.0 μM; for inhibition at 1.1 µM: HIV-1 dose 1.1 μM
Experimental: The HIV protease screening assay is based on a fluorescently labeled substrate which can be resolved from nonlabeled cleavage product using avidin-polystyrene particles, 0.7-0.9 μm. The substrate is biotinylated at the amino terminal arginine and fluorescently labeled with fluorescein isothiocynate (FITC) at the carboxyl terminal lysine. This assay has been employed to detect novel, nonpeptidic inhibitors of HIV-1 protease. Substrate (20 μl of 0.2 μM), sample (10 μl of desired concentraion), and enzyme (10 μl of 0.1 μM) are added to a 96 well pandex plate. The assay is run in 0.1 M sodium acetate buffer at pH 5.5 in the presence of 1.0 M sodium chloride and 0.05% NP-40 and incubated in the dark for one hour at room temperature. Avidin coated polystyrene beads (40 μl of 0.1% (w/v)) are added and the incubation is continued in the dark for an additional half hour. The labeled cleavage product is separated from the unreacted substrate via filtration and is read on the IDEXX Screen Machine. (IDEXX Corporation--Portland, Me.) The data are analyzed by appropriate computer algorithms to ascertain percent inhibition values.
The Activity Table showing the results of the HIV Protease Inhibitory Assay appears below in TABLE 1. The table has three columns, the left column provides the code number of the compound for easy cross reference to structure tables and detailed procedures, the middle column provides the concentration of test compound and the column on the right provides the percent inhibition.

SMILES | inhibition at 3.3 µM [%] | inhibition at 10 µM [%] | inhibition at 30 µM [%] | other results
CC(C)(C)C(C1=C(O)C(CCCc2ccccc2)OC1=O)c1ccccc1 (stereo not drawn) [FX-5, 2(5H)-Furanone, 3-(2,2-dimethyl-1-phenylpropyl)-4-hydroxy-5-(3-phenyl-propyl)-] | 61.9 | 84.4 | 84.3 | –
O=C1OC(CCC2CCCCC2)C(O)=C1C(c1ccccc1)C1CC1 (stereo not drawn) [BX-5, 2(5H)-Furanone, 5-(2-cyclohexylethyl)-3-(cyclopropylphenylmethyl)-4-hydroxy-] | – | 61.2 | – | inhibition at 1 µM: 12.6%; inhibition at 100 µM: 71.5%
C=CC(C1=C(O)C(CCCc2ccccc2)OC1=O)c1ccccc1 (stereo not drawn) [FX-3, 2(5H)-Furanone, 4-hydroxy-3-(1-phenyl-2-propenyl)-5-(3-phenylpropyl)-] | 38.6 | 66.3 | 68.6 | –
CCC1(Cc2ccccc2)OC(=O)C(C(c2ccccc2)C2CC2)=C1O (stereo not drawn) [DX-3, 2(5H)-Furanone, 3-(cyclopropylphenylmethyl)-5-ethyl-4-hydroxy-5-(phenyl-methyl)-] | 95.5 | 103 | 105 | –
O=C1OC(CC=Cc2ccccc2)C(O)=C1C(c1ccccc1)C1CC1 (stereo not drawn) [BX-6, 2(5H)-Furanone, 3-(cyclopropylphenylmethyl)-4-hydroxy-5-(3-phenyl-2-propenyl)-] | 65.7 | 77.2 | 82.1 | –
O=C1OC(CCCc2ccccc2)C(O)=C1C(c1ccccc1)C1CC1 (stereo not drawn) [BX-3, 2(5H)-Furanone, 3-(cyclopropylphenylmethyl)-4-hydroxy-5-(3-phenylpropyl)-] | – | 90.6 | – | inhibition at 1 µM: 46%; inhibition at 100 µM: 93.2%
O=C1OC(Cc2ccccc2)C(O)=C1C(c1ccccc1)C1CC1 (stereo not drawn) [BX-1, 5H-Furan-2-one, 5-benzyl-3-cyclopropylphenylmethyl-4-hydroxy-] | – | 80.1 | – | inhibition at 1 µM: 18.7%; inhibition at 100 µM: 90.5%
O=C1OC(CCCc2ccccc2)(Cc2ccccc2)C(O)=C1C(c1ccccc1)C1CC1 (stereo not drawn) [DX-15, 2(5H)-Furanone, 3-(cyclopropylphenylmethyl)-4-hydroxy-5-(phenylmethyl)-5-(3--phenylpropyl)-] | 108 | 116 | 114 | –
O=C1OC(C(CCc2ccccc2)c2ccccc2)C(O)=C1C(c1ccccc1)C1CC1 (stereo not drawn) [GX-4, 2(5H)-Furanone,3-(cyclopropylphenylmethyl)-5-(1,3-diphenylpropyl)-4-hydroxy-] | 93.6 | 108 | 103 | –
O=C1OC(CCCc2ccccc2)C(O)=C1C(c1ccccc1)c1ccccc1 (stereo not drawn) [FX-2, 2(5H)-Furanone, 3-(diphenylmethyl)-4-hydroxy-5-(3-phenylpropyl)-] | 41.5 | 69 | 77.3 | –
CCC(C)C1(CCCc2ccccc2)OC(=O)C(C(c2ccccc2)C2CC2)=C1O (stereo not drawn) [DX-19, 2(5H)-Furanone, 3-(cyclopropylphenylmethyl)-4-hydroxy-5-(1-methylpropyl)--5-(3-phenylpropyl)-] | 100 | – | – | inhibition at 0.37 µM (HIV-1 dose 0.37 μM): 100%; inhibition at 1.1 µM: 103%
CCC(C1=C(O)C(Cc2ccccc2)OC1=O)c1ccccc1 (stereo not drawn) [BX-9, 2(5H)-Furanone, 4-hydroxy-5-(phenylmethyl)-3-(1-phenylpropyl)-] | 50.1 | 75.1 | 86.1 | –
O=C1OC2(CCCC2)C(O)=C1C(c1ccccc1)C1CC1 (stereo not drawn) [CX-1, 1-Oxaspiro[4.4]non-3-en-2-one, 3-(cyclopropylphenylmethyl)-4-hydroxy-] | – | – | – | inhibition at 3.7 µM (HIV-1 dose 3.7 μM): 109%; inhibition at 11 µM (HIV-1 dose 11.0 μM): 115%; inhibition at 100 µM: 109%
CCCCC1(CCCC)OC(=O)C(C(c2ccccc2)C2CC2)=C1O (stereo not drawn) [BX-15, 2(5H)-Furanone, 5,5-dibutyl-3-(cyclopropylphenylmethyl)-4-hydroxy-] | 115 | 118 | 122 | –
CC(C)C(C1=C(O)C(CCCc2ccccc2)OC1=O)c1ccccc1 (stereo not drawn) [FX-4, 2(5H)-Furanone, 4-hydroxy-3-(2-methyl-1-phenylpropyl)-5-(3-phenylpropyl)-] | 56.6 | 84.4 | 96.5 | –
O=C1OC(CCCc2ccccc2)(CCc2ccccc2)C(O)=C1C(c1ccccc1)C1CC1 (stereo not drawn) [DX-18, 2(5H)-Furanone, 3-(cyclopropylphenylmethyl)-4-hydroxy-5-(2-phenyl-ethyl)-5-(3-phenylpropyl)-] | 113 | 114 | 101 | –
CCC1(CC)OC(=O)C(C(c2ccccc2)C2CC2)=C1O (stereo not drawn) [BX-14, 2(5H)-Furanone, 3-(cyclopropylphenymethyl)-5,5-diethyl-4-hydroxy-] | 92.7 | 94 | 99 | –
CC(C)C1(C(C)C)OC(=O)C(C(c2ccccc2)C2CC2)=C1O (stereo not drawn) [BX-13, 2(5H)-Furanone, 3-(cyclopropylphenylmethyl)-4-hydroxy-5,5-bis(1-methylethyl)-] | 104 | 108 | – | inhibition at 1.1 µM: 94.1%

More lines, main results first:

inhibition at 3.3 µM [%] | inhibition at 10 µM [%] | inhibition at 30 µM [%] | SMILES | other results
97.1 | 96.6 | 94.3 | CCCC1(Cc2ccccc2)OC(=O)C(C(c2cccc(NS(=O)(=O)c3cn(C)cn3)c2)C(C)C)=C1O (stereo not drawn) [IX-30] | –
79.8 | 86.8 | 87.4 | O=C1OC2(CCN(C(=O)OCC3c4ccccc4-c4ccccc43)CC2)C(O)=C1C(c1ccccc1)C1CC1 (stereo not drawn) [IX-58, 3-(Cyclopropyl-phenyl-methyl)-4-hydroxy-2-oxo-1-oxa-8-aza-spiro[4.5]dec-3-ene-8-carboxylic acid 9H-fluoren-9-ylmethyl ester] | –
94 | 94.1 | 99.2 | CCCCC(CC)C1OC(=O)C(C(c2ccccc2)C2CC2)=C1O (stereo not drawn) [GX-5, 2(5H)-Furanone, 3-(cyclopropylphenylmethyl)-5-(1-ethylpentyl)-4-hydroxy-] | –
90.8 | 91.1 | 104 | CCCC1(CCC)OC(=O)C(C(Cc2ccccc2)c2cccc(NS(=O)(=O)c3cn(C)cn3)c2)=C1O (stereo not drawn) [IX-40] | –
108 | 108 | 114 | CCCC1(CCC)OC(=O)C(C(c2cccc(N)c2)C2CC2)=C1O (stereo not drawn) [IX-11, 2(5H)-Furanone, 3-((3-aminophenyl)cyclopropylmethyl)-4-hydroxy-5,5-dipropyl-] | –
56.9 | 87.7 | 103 | O=C1O/C(=C\c2ccccc2)C(O)=C1C(c1ccccc1)C1CC1 (stereo not drawn) [JX-2, 5-Benzylidene-3-(cyclopropyl-phenyl-methyl)-4-hydroxy-5H-furan-2-one] | –
102 | 104 | 92 | Cn1cnc(S(=O)(=O)Nc2cccc(C(C3=C(O)C(Cc4ccccc4)(Cc4ccccc4)OC3=O)C(C)(C)C)c2)c1 (stereo not drawn) [IX-53] | –
110 | 116 | 105 | CCCC1(CCC)OC(=O)C(C(c2cccc(NS(=O)(=O)c3cn(C)cn3)c2)C(C)(C)C)=C1O (stereo not drawn) [IX-26, 1H-Imidazole-4-sulfonamide, N-(3-(1-(4-hydroxy-2-oxo-5,5-dipropyl-2,5-dihydro-furan-3-yl)-2,2-dimethyl-propyl)-phenyl)-1-methyl-] | –
102 | 105 | 92.4 | CC(C)(C)C(C1=C(O)C(Cc2ccccc2)(Cc2ccccc2)OC1=O)c1cccc(NS(=O)(=O)c2ccc(C#N)cc2)c1 (stereo not drawn) [IX-54] | –
108 | 109 | 106 | CCCC1(CCC)OC(=O)C(C(c2cccc(NS(=O)(=O)c3ccc(F)cc3)c2)C2CC2)=C1O (stereo not drawn) [IX-16] | –
– | 78.1 | 86 | O=C1OC2(CCCCC2CCc2ccccc2)C(O)=C1C(c1ccccc1)C1CC1 (stereo not drawn) [IX-4, 1 -Oxaspiro[4.5]dec-3-en-2-one, 3-(cyclo-propylphenylmethyl)-5-hydroxy--6-(2-phenylethyl)-] | HIV-1 Protease % Inhibition (test compound concentration 3.3 μM): 56.89%
94.9 | 102 | 93.3 | CCCC1(Cc2ccccc2)OC(=O)C(C(c2cccc(NS(=O)(=O)c3ccc(F)cc3)c2)C(C)C)=C1O (stereo not drawn) [IX-29, Benzenesulfonamide, N-(3-(1-(2,5-dihydro-4-hydroxy-2-oxo-5-(phenylmethyl)-5-propyl-3-furanyl)-2-methylpropyl)phenyl)-4-fluoro-] | –
97.3 | 105 | 101 | CCC(C1=C(O)C(CC)(Cc2ccccc2)OC1=O)c1ccccc1 (stereo not drawn) [IX-10, 2(5H)-Furanone, 5-ethyl-4-hydroxy-5-(phenyl-methyl)-3-(1-phenylpropyl)-] | –
102 | 113 | 102 | CCCC1(CCC)OC(=O)C(C(CC)c2cccc([N+](=O)[O-])c2)=C1O (stereo not drawn) [IX-2, 2(5H)-Furanone, 4-hydroxy-3-(1-(3-nitrophenyl)propyl)-5,5-dipropyl-] | –
